The subject of test [1] is T1, TlFLU1L.
T1 construct: native secreted enzyme purified from anthracene-induced culture (ammonium sulfate, DEAE, Sephadex G-100); yellow laccase; 44 kDa by SDS-PAGE
As to the kind of experiment: residual anthracene by UV absorbance at […] nm after ethyl acetate extraction; Michaelis-Menten fit. Format: biochemical, Trichoderma lixii. The conditions noted are these: no mediator; anthracene 50-400 mg/L, Na-acetate 50 mM pH 5, Tween 80 1%, 30 °C, laccase 3 U, 96 h.

Test [2] relates to T2, TpFLU12L.
T2 construct: native secreted enzyme purified from anthracene-induced culture (ammonium sulfate, DEAE, Sephadex G-100); blue laccase
The description is as above. Format: biochemical, Talaromyces pinophilus. Particulars: no mediator; anthracene 50-400 mg/L, Na-acetate 50 mM pH 5, Tween 80 1%, 30 °C, laccase 3 U, 96 h.

As for `c1ccc2cc3ccccc3cc2c1` [anthracene], in test [1], the “Km (mg/L) / TlFLU1” value turned out to be 173.2 ± 0.06 mg/L. The “Km (mg/L) / TpFLU12” value in test [2] amounted to 73.3 ± 0.07 mg/L.

Source of the values: PMC11246312, “Anthracene detoxification by Laccases from indigenous fungal strains Trichoderma lixii FLU1 and Talaromyces pinophilus FLU12” (Biodegradation, 2024).
